Key:
S. Aureus ATCC 29213 = assay: Dehydrogenase activity (DEHA) MTT test after BMD; assay type: cell-based, Staphylococcus aureus; settings: 24 h exposure; % against untreated control; ± SD; n = 3
Experimental: (§1) The cell dehydrogenase (DEHA, redox, metabolic) activity of all samples was measured at the end of the BMD assay, based on reducing the MTT dye to formazan by the membrane located bacterial enzyme NADH: ubiquinone reductase (H^+-translocation). The protocol of Wang et al. was applied after minor modifications. Briefly, each sample was incubated for 120 min at 37 °C with MTT at a final concentration of 0.5 mg/mL in the culture medium. The resulting non-soluble violet formazan crystals were dissolved with an equal volume of 2-propanol supplemented with 5% formic acid. The absorbance was measured at 550 nm against a blank solution containing the respective volumes of MHB and MTT.
The cell viability is presented as a percentage of the untreated control. At least four wells were seeded for every concentration. Three independent assays were performed (n = 3). […] The respiratory activity of the bacterial cultures was calculated as a percentage against the untreated control.

[1] = tested on: S. Aureus MRSA NBIMCC 8327; assay: Dehydrogenase activity (DEHA) MTT test after BMD; assay type: cell-based, Staphylococcus aureus; settings: 24 h exposure; % against untreated control; ± SD; n = 3
Experimental: as §1
(§2) The IC50 values from the MTT assay were evaluated with a non-linear regression analysis (Curve fit, GraphPad Prizm 6.01 software, GraphPad Software Inc., San Diego, CA, USA) using sigmoidal concentration–response curves. The cell viability is presented as a percentage of the untreated control. […] The maximum tolerated concentration (MTC) for the cell lines was determined from three independent assays according to ISO 10993-5 as the maximum concentration at which at least 70% of the cells were viable (nonlin fit, range, GraphPad Prizm 6.01 software) GraphPad Software Inc., San Diego, CA, USA). […] The respiratory activity of the bacterial cultures was calculated as a percentage against the untreated control.

E. coli ATCC 35218 = assay: Dehydrogenase activity (DEHA) MTT test after BMD; assay type: cell-based, Escherichia coli; settings: in MHB; 24 h exposure; % against untreated control; ± SD; n = 3
Experimental: as §1, §2

[2] = tested on: Y. enterocolitica IP 864 O: 3; assay: Dehydrogenase activity (DEHA) MTT test after BMD; assay type: cell-based, Yersinia enterocolitica; settings: 24 h exposure; % against untreated control; ± SD; n = 3
Experimental: as §1
The IC50 values from the MTT assay were evaluated with a non-linear regression analysis (Curve fit, GraphPad Prizm 6.01 software, GraphPad Software Inc., San Diego, CA, USA) using sigmoidal concentration–response curves. The cell viability is presented as a percentage of the untreated control. At least four wells were seeded for every concentration. Three independent assays were performed (n = 3). The maximum tolerated concentration (MTC) for the cell lines was determined from three independent assays according to ISO 10993-5 as the maximum concentration at which at least 70% of the cells were viable (nonlin fit, range, GraphPad Prizm 6.01 software) GraphPad Software Inc., San Diego, CA, USA). To compare the MTC values of the solvents for each cell line, the ordinary One-way ANOVA statistical analysis based on Tukey’s multiple comparisons test with a single pooled variance (GraphPad Prizm 6.01 software) GraphPad Software Inc., San Diego, CA, USA) was utilized, and p ≤ 0.05 was set as a significance level. The respiratory activity of the bacterial cultures was calculated as a percentage against the untreated control.

[3] = tested on: A-375 (malignant melanoma); assay: MTT dye-reduction cytotoxicity assay (ISO 10993-5); assay type: cell-based, human; settings: solvent alone, n = 3
Description: The cell lines utilized in this study included the human tumor lines A-375 (malignant melanoma) and A-431 (non-melanoma epidermoid squamous skin carcinoma) as well as the models for non-tumorigenic cells—HaCaT (immortalized human keratinocytes) and CCL-1^TM (transformed mouse fibroblasts, NCTC clone 929). The first three cell lines were obtained from CLS Cell Lines Service (GmbH, Eppelheim, Germany). CCL-1^TM was purchased from the American Type Culture Collection (ATCC, Manassas, VA, USA). Cells were maintained in a controlled environment—sterile cell culture flasks in a CO2 incubator Panasonic MCO-18AC (Panasonic Healthcare co., ltd, Oizumi-Machi, Japan) at 37 °C and a humidified atmosphere containing 5% CO2. CCL-1 was cultured in MEM with 10% heat-inactivated horse serum and 2 mM L-glutamine, and the cell culture medium for the rest of the cell lines was DMEM-HG with 4.5 g/L glucose with the addition of 10% heat-inactivated fetal bovine serum and 4 mM L-glutamine. Pen/strep (concentration of penicillin G sodium 10^5 Units/L and of streptomycin sulfate 100 mg/L) was added to both culture media. The cell lines were maintained as an adherent monolayer in a log phase. The cells were sub-cultivated about 1–3 times per week after the monolayer reached 80–90% confluence. The medium was removed from the flask, and the cell monolayer was washed with 3–5 mL PBS. The cells were incubated with 0.05% EDTA in PBS for 8–10 min, followed by the next step where all cell lines were subjected to enzyme cell detachment. HaCaT and CCL-1 monolayers were detached with 1 mL solution of trypsin/EDTA (0.1%/0.05% for HaCaT and 0.25% (w/v)/0.53 mM for CCL-1) and incubated for 2–5 min at 37 °C (for HaCaT) or at room temperature (for CCL-1 cells), whereas Accutase® was used for A-375 and A-431 lines. The incubation lasted until the separation and dispersion of the cells in the monolayer were observed using light microscopy. In the end, all cell lines were resuspended in 10 mL medium and centrifuged for 3 min at 300× g. The cell pellet was resuspended in fresh medium and sub-cultivated at a seeding density of 1.0 × 10^4 cells/cm^2.
The MTT test was performed in order to determine the median inhibitory (IC50) and MTC concentrations of the solvents and PAC according to Annex C, ISO 10993-5 [2, 21]. Briefly, 100 µL of the cell suspension (1 × 10^5 cells/mL) were seeded per well in 96-well plates with a flat bottom. The cells were incubated for 24 h, allowing them to enter the log phase of their growth. On the 24th hour, the cells were treated with the solvents or CystiCran® solutions in concentrations ranging between 0.004% and 2% volume fraction (v/v) and incubated further for 72 h. The incubation periods are following the recommendations of the FDA guide for the use of ISO 10993-1 [1]. At the end of the incubation period, 10 µL of an MTT solution (5 mg/mL) were added to each well, and the plates were kept at 37 °C for 2 hours. Thereafter, the medium was aspirated, and the formed formazan crystals were dissolved in 100 μL/well of 2-propanol supplemented with 5% formic acid. The same solvent was used as a blank. […] The absorption was measured at 540 nm (reference filter at 690 nm) on a microplate reader ELx800 (BioTek Instruments, Inc., Winooski, VT, Winooski, VT, USA).
The IC50 values from the MTT assay were evaluated with a non-linear regression analysis (Curve fit, GraphPad Prizm 6.01 software, GraphPad Software Inc., San Diego, CA, USA) using sigmoidal concentration–response curves. […]

SMILES	DEHA (dehydrogenase activity) (S. Aureus ATCC 29213)	DEHA (dehydrogenase activity) [1]	DEHA (dehydrogenase activity) (E. coli ATCC 35218)	DEHA (dehydrogenase activity) [2]	MTC (maximum tolerated concentration) ([3]; 72 h, at least 70% of cells viable)	IC50 (CI 95%) ([3]; 72 h incubation)
C[S+](C)[O-] [DMSO, dimethyl sulfoxide]	12.29 ± 0.04%	13.01 ± 0.05%	13.02%	19.13 ± 0.17%		
CCO [EtOH, ethanol]					> 2 % (v/v)	> 2 % (v/v)
